Patent publication US7687526B2, “Benzo-fused compounds for use in treating metabolic disorders” (Amgen Inc., priority 2006, dated 2010)
pEC50: −log10 of the molar value.

Assays:
[1] = target: T1, human GPR40 (Homo sapiens, UniProt O14842); assay: Cell-based aequorin assay using human GPR40; conditions: CHO cells stably transfected with GPR40 and Aequorin; 0.01% HSA; aequorin luminescence; read-out: Relative EC50
T1 construct: expressed in transfected cells; host or cells: CHO cells
Method: Cell-based aequorin assays were employed to characterize the modulatory activity of compounds on the GPR40 signaling pathway. In an exemplary assay, CHO cells were stably transfected with both GPR40 and Aequorin (Euroscreen). Cells were detached from the tissue culture dish with 2 mL of trypsin (0.25% (w/v)). Trypsinization was halted with 28 mL of Hanks Buffered Salt Solution containing 20 mM Hepes (H/HBSS) and 0.01% fatty acid-free human serum albumin (HSA). Coelantrazine is added to 1 ug/mL, and the cells were incubated for 2 hours at room temperature. Compounds were dissolved in DMSO for preparation of 10 mM stock solutions. Compounds were diluted in H/HBSS containing 0.01% HSA. Serial dilutions of the test compounds were prepared to determine dose response.
Aequorin luminescence measurements were made using an EG&G Berthold 96-well luminometer, and the response was measured over a 20 second interval after cells and compounds were mixed. The maximum relative light units was plotted to determine dose response. The EC50 (effective concentration to reach 50% maximal response) was determined from the dose response plot.
Table 1 presents representative data (EC50 values) obtained for exemplary compounds of the invention for the relative activation of human GPR40. […]

[2] = tested on: Human islets; assay: Insulin secretion assay; type: cell-based; conditions: human islet cells, KRBH with 11.2 mM glucose, insulin measured by SPA; read-out: EC50 of stimulated insulin secretion from islet cells
Method: Human islets were isolated from cadaveric donors. Islets were treated with trypsin (0.25% (w/v) and cells were seeded in 96-well plates containing 3,000 cells per well. Cells were cultured in Roswell Park Memorial Institute (RMPI) media containing 10% fetal bovine serum.
For determination of insulin secretion, media was removed from islet cells and replaced with Krebs-Ringer bicarbonate buffer containing 10 mM HEPES (KRBH) and 2 mM glucose. After one hour incubation, media was replaced with KRBH containing 11.2 mM glucose and test compounds. Insulin released into the medium from the islet cells was measured using scintillation proximity assay (SPA).

T1 sequence (O14842 whole entry): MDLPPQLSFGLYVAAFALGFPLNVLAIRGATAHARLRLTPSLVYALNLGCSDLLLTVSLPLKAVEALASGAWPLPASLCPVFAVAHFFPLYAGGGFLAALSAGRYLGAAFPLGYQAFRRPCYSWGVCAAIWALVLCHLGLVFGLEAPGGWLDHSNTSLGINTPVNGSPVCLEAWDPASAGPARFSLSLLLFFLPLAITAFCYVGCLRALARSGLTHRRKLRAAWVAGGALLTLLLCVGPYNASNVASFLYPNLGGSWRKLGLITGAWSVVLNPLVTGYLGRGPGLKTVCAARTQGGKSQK

| pEC50 [1] | pEC50 [2] | Compound |
| --- | --- | --- |
| 5.00 to 6.00 |  | CC/C(C)=C/[C@H](CC(=O)O)c1ccc(OCc2ccc3c(c2)C(C)(C)CCC3(C)C)cc1 [Example 79, (S,E)-5-Methyl-3-(4-((5,5,8,8-tetramethyl-5,6,7,8-tetrahydronaphthalen-2-yl)methoxy)phenyl)hept-4-enoic acid] |
| 6.00 to 7.00 |  | Cn1ccnc1[C@@H](CC(=O)O)c1ccc(OCc2ccc3c(c2)OC(F)(F)O3)cc1 [Example 82, (S)-3-(4-((2,2-difluorobenzo[d][1,3]dioxol-5-yl)methoxy)phenyl)-3-(1-methyl-1H-imidazol-2-yl)propanoic acid] |
| 6.00 to 7.00 |  | CC1(C)CCC(C)(C)c2cc(COc3ccc([C@H](CC(=O)O)c4ncco4)cc3)ccc21 [Example 12, (S)-3-Oxazol-2-yl-3-[4-(5,5,8,8-tetramethyl-5,6,7,8-tetrahydro-naphthalen-2-ylmethoxy)-phenyl]-propionic acid] |
| 5.00 to 6.00 |  | CC1(C)CCC(C)(C)c2cc(COc3ccc([C@H](/C=C/Cc4ccccc4)CC(=O)O)cc3)ccc21 [Example 84, (S,E)-6-Phenyl-3-(4-((5,5,8,8-tetramethyl-5,6,7,8-tetrahydronaphthalen-2-yl)methoxy)phenyl)hex-4-enoic acid] |
| 5.00 to 6.00 |  | Cn1ccnc1[C@@H](CC(=O)O)c1ccc(OCc2ccc3c(c2)C(=O)CCC3(C)C)cc1 [Example 81, (S)-3-(4-((5,5-Dimethyl-8-oxo-5,6,7,8-tetrahydronaphthalen-2-yl)methoxy)phenyl)-3-(1-methyl-1H-imidazol-2-yl)propanoic acid] |
| 5.00 to 6.00 |  | CC#C[C@H](CC(=O)O)c1ccc(OCc2ccc3c(c2)C(C)(C)CCC3(C)C)cc1 [Example 20, (R)-3-(4-((5,5,8,8-Tetramethyl-5,6,7,8-tetrahydronaphthalen-2-yl)methoxy)phenyl)hex-4-ynoic acid] |
| 7.00 to 8.00 |  | CCC1(CC)CCC(C)(C)c2ccc(COc3ccc([C@H](CC(=O)O)c4ccon4)cc3)cc21 [Example 72, (S)-3-(4-((8,8-diethyl-5,5-dimethyl-5,6,7,8-tetrahydronaphthalen-2-yl)methoxy)phenyl)-3-(isoxazol-3-yl)propanoic acid] |
| 7.00 to 8.00 |  | CC1(C)CCC(C)(C)c2cc(COc3ccc([C@H](CC(=O)O)C4=NOCC4)cc3)ccc21 [Example 74, 3-(4,5-Dihydroisoxazol-3-yl)-3-(4-((5,5,8,8-tetramethyl-5,6,7,8-tetrahydronaphthalen-2-yl)methoxy)phenyl)propanoic acid] |
| 6.00 to 7.00 |  | Cn1ccnc1[C@@H](CC(=O)O)c1ccc(OCc2ccc3c(c2)CCCC3(C)C)cc1 [Example 75, (S)-3-(4-((5,5-dimethyl-5,6,7,8-tetrahydronaphthalen-2-yl)methoxy)phenyl)-3-(1-methyl-1H-imidazol-2-yl)propanoic acid] |
| 5.00 to 6.00 |  | CC#C[C@@H](CC(=O)O)c1ccc(OCc2ccc3c(c2)C(C)(C)CCC3(C)C)cc1 [Example 19, (S)-3-(4-((5,5,8,8-Tetramethyl-5,6,7,8-tetrahydronaphthalen-2-yl)methoxy)phenyl)hex-4-ynoic acid] |
| 6.00 to 7.00 |  | CC/C(C)=C/[C@@H](CC(=O)O)c1ccc(OCc2ccc3c(c2)C(C)(C)CCC3(C)C)cc1 [Example 78, (R,E)-5-Methyl-3-(4-((5,5,8,8-tetramethyl-5,6,7,8-tetrahydronaphthalen-2-yl)methoxy)phenyl)hept-4-enoic acid] |
|  | > 6.00 | CC1(C)CCC(C)(C)c2cc(COc3ccc(C(CC(=O)O)c4cncnc4)cc3)ccc21 (racemic) [Example 9, (R/S)-3-Pyrimidin-5-yl-3-[4-(5,5,8,8-tetramethyl-5,6,7,8-tetrahydro-naphthalen-2-ylmethoxy)-phenyl]-propionic acid] |
| 7.00 to 8.00 |  | CC#CC(CC(=O)O)c1ccc(OCc2ccc3c(c2)C[C@H](c2ccc(Cl)cc2)O3)cc1 (single isomer, unassigned) [Example 77] |
| 6.00 to 8.00 |  | CCC1(CC)CCC(C)(C)c2ccc(COc3ccc([C@H](CC(=O)O)c4nnnn4C)cc3)cc21 [Example 73, (S)-3-(4-((8,8-diethyl-5,5-dimethyl-5,6,7,8-tetrahydronaphthalen-2-yl)methoxy)phenyl)-3-(1-methyl-1H-tetrazol-5-yl)propanoic acid] |
| 5.00 to 6.00 |  | CC1(C)CCC(C)(C)c2cc(COc3ccc([C@@H](/C=C/Cc4ccccc4)CC(=O)O)cc3)ccc21 [Example 83, (R,E)-6-Phenyl-3-(4-((5,5,8,8-tetramethyl-5,6,7,8-tetrahydronaphthalen-2-yl)methoxy)phenyl)hex-4-enoic acid] |
| 5.00 to 6.00 |  | Cn1ccnc1[C@@H](CC(=O)O)c1ccc(OCc2ccc3c(c2)OCCO3)cc1 [Example 86, (S)-3-(4-((2,3-Dihydrobenzo[b][1,4]dioxin-6-yl)methoxy)phenyl)-3-(1-methyl-1H-imidazol-2-yl)propanoic acid] |
| 7.00 to 8.00 |  | CC#CC(CC(=O)O)c1ccc(OCc2ccc3c(c2)C[C@@H](c2ccc(Cl)cc2)O3)cc1 (single isomer, unassigned) [Example 76] |
|  | > 6.00 | Cn1cncc1[C@@H](CC(=O)O)c1ccc(OCc2ccc3c(c2)C(C)(C)CCC3(C)C)cc1 [Example 4, (S)-3-(1-methyl-1H-imidazol-5-yl)-3-(4-((5,5,8,8-tetramethyl-5,6,7,8-tetrahydronaphthalen-2-yl)methoxy)phenyl)propanoic acid] |
| 6.00 to 7.00 |  | Cn1ccnc1[C@@H](CC(=O)O)c1ccc(OCc2ccc3c(c2)C(C)(C)CC3(C)C)cc1 [Example 80, (S)-3-(1-Methyl-1H-imidazol-2-yl)-3-(4-((1,1,3,3-tetramethyl-2,3-dihydro-1H-inden-5-yl)methoxy)phenyl)propanoic acid] |
